Our source for the EC50 values is patent publication US20150150893A1, “ANDROGRAPHOLIDE ANALOGS AND THEIR USE FOR MEDICATION” (LIAONING LIFENG SCIENTIFIC & TECHNOLOGY DEVELOPMENT COMPANY …, priority 2012, published 2015).

What all share (assay type): cell-based
In experiment [1] the test system is Japanese encepahalitis virus. Particulars: read-out: In-Vitro Antiviral Screening Result (EC50) C.
In the next experiment the test system is Rift Valley fever virus. Put plainly: microbe, parasite or virus in culture.
The test system of a further experiment is SARS coronavirus. Put plainly: microbe, parasite or virus in culture. Particulars: Severe acute respiratory syndrome coronavirus.
In experiment [2] the test system is Venezuelan equine encephalitis virus. Put plainly: microbe, parasite or virus in culture. Particulars: read-out: In-Vitro Antiviral Screening Result (EC50) G.
Another experiment concerns Influenza A virus H1N1. Put plainly: microbe, parasite or virus in culture. The conditions noted are these: H1N1, read-out: In-Vitro Antiviral Screening Result (EC50) H.
Another experiment relates to many virus. Put plainly: Antivirus studies in vitro, summary over the virus panel. The conditions noted are these: read-out: EC50 against many virus. On the procedure: compounds were diluted to 20 mg/mL in DMSO then prepared in for log 10 dilutions of 100 μg/mL down to 0.1 μg/mL) in MEM solution with 50 μg/mL gentamicin and 2% FBS. Each dilution was added to 5 wells of a 96-well plate with 80-100% confluent cells. Three wells of each dilution were infected with virus, and two wells remained uninfected as toxicity controls. The multiplicity of infection (MOI) was as low as possible to achieve CPE within 3-5 days of incubation. A known active compound was tested in parallel as a control. After untreated virus control wells reached maximum cytopathic effect (CPE), each well was scored microscopically. Plates were then stained with neutral red dye for approximately 2 hours, then supernatant dye was removed from the wells and the incorporated dye was extracted in 50:50 Sorensen citrate buffer/ethanol, then the optical density was read on a spectrophotometer.

Setting [3] is: read-out: In-Vitro Antiviral Screening Result (EC50) E.
Where [4] appears, read: read-out: In-Vitro Antiviral Screening Result (EC50) F.

Like-named read-outs stand apart in the source and are kept apart here.

Regarding `CC(NC1CC2[C@](C)(CC[C@@H](O)[C@@]2(C)CO)C(/C=C/C2=CC(=C\c3cnc(N4CCN(C)CC4)nc3)/OC2=O)C12CO2)C(=O)NC1=NCC=N1` (stereo partly shown) [Example 23, 7-((2-((4H-imidazol-2-yl)amino)-1-oxopropan-2-yl)amino)-11,12-dedihydro-14-deoxy-(E)-15-((2-(4-methylpiperazin-1-yl)pyrimidin-5-yl)methylene)-8,17-epoxyandrographolide], the EC50 in experiment [1] was < 50 µg/mL; in the experiment with Rift Valley fever virus (setting [3]), < 50 µg/mL; with SARS coronavirus (setting [4]), < 50 µg/mL; in experiment [2], < 50 µg/mL; in the experiment with Influenza A virus H1N1 it was > 100 µg/mL; in the experiment on many virus, < 50 µg/mL.

Turning to `C=C1CCC2C(C)(CO)C(O)CCC2(C)C1/C=C/C1=CC(=C\c2ccc(Cl)cc2Cl)/OC1=O` (stereo not shown) [Example 35, 11,12-dedihydro-14-deoxy-(E)-15-(2,4-dichlorobenzylidene)andrographolide], the EC50 in experiment [1] was < 50 µg/mL; in the experiment with Rift Valley fever virus (setting [3]), > 100 µg/mL; in the experiment with SARS coronavirus (setting [4]), < 50 µg/mL; in experiment [2], < 50 µg/mL; with Influenza A virus H1N1, < 50 µg/mL; in the experiment with many virus, < 50 µg/mL.

Consider `C=C1CCC2[C@](C)(CC[C@@H](O)[C@@]2(C)CO)C1/C=C/C1=CC(=C\c2ccc(N(C)C)cc2)/OC1=O` (stereo partly shown) [Example 37, 11,12-dedihydro-14-deoxy-15-(4-(dimethylamino)benzylidene)andrographolide], for which the EC50 in experiment [1] is < 50 µg/mL; in the experiment on Rift Valley fever virus (read-out: EC50 against virus E), < 1 µg/mL; in the experiment with Rift Valley fever virus (setting [3]), < 50 µg/mL; in the experiment with SARS coronavirus (read-out: EC50 against virus F), < 1 µg/mL; in the experiment on SARS coronavirus (setting [4]), < 50 µg/mL; in experiment [2], < 50 µg/mL. Also, the EC50 in the experiment with Influenza A virus H1N1 is < 50 µg/mL.

Turning to `C[C@]12CC[C@@H](O)[C@@](C)(CO)C1CCC1(CO1)C2/C=C/C1=CC(=C\c2cnc(N)[nH]c2=O)/OC1=O` (stereo partly shown) [Example 38, 11,12-dedihydro-14-deoxy-15-(2-amino-5-oxygen-3H-pyrimidine-5-ylmethylene)-8,17-epoxyandrographolide], the EC50 in experiment [1] was < 100 µg/mL; in the experiment with Rift Valley fever virus (setting [3]), > 100 µg/mL; in the experiment with SARS coronavirus (setting [4]), < 50 µg/mL; in experiment [2] it was < 100 µg/mL; in the experiment with Influenza A virus H1N1, < 100 µg/mL; in the experiment with many virus, < 50 µg/mL.

Regarding `C=C1CCC2C(C)(CO)C(O)CCC2(C)C1/C=C/C1=CC(=C\c2ccc(OC3OC(CO)C(O)C(O)C3O)cc2)/OC1=O` (stereo not shown) [Example 40, 11,12-dedihydro-14-deoxy-15-(4-((3,4,5-trihydroxy-6-(hydroxymethyl)tetrahydro-2H-pyran-2-yl)oxy)benzylidene)andrographolide], the EC50 in experiment [1] was < 100 µg/mL; in the experiment on Rift Valley fever virus (setting [3]) it was > 100 µg/mL; with SARS coronavirus (setting [4]) it was < 50 µg/mL; in experiment [2], > 100 µg/mL; in the experiment with Influenza A virus H1N1 it was > 100 µg/mL; in the experiment with many virus, < 50 µg/mL.

As for `COc1cc(/C=C2C=C(/C=C/C3C4(CCC5[C@]3(C)CC[C@@H](O)[C@@]5(C)CO)CO4)C(=O)O\2)cc([N+](=O)[O-])c1O` (stereo partly shown) [Example 41, 11,12-dedihydro-14-deoxy-(E)-15-(4-hydroxy-3-methoxy-5-nitrobenzylidene)-8,17-epoxyandrographolide], the EC50 in experiment [1] was > 100 µg/mL; with Rift Valley fever virus (setting [3]), < 50 µg/mL; in the experiment with SARS coronavirus (setting [4]), < 100 µg/mL; in experiment [2] it was > 100 µg/mL; with Influenza A virus H1N1 it was < 100 µg/mL; in the experiment on many virus it was < 50 µg/mL.

Regarding `C=C1CCC2[C@](C)(CC[C@@H](O)[C@@]2(C)CO)C1/C=C/C1=CC(=C\c2ccc(N(C)C)cc2O)/OC1=O` (stereo partly shown) [Example 44], the EC50 in experiment [1] is > 100 µg/mL; with Rift Valley fever virus (setting [3]), > 100 µg/mL; with SARS coronavirus (setting [4]), < 50 µg/mL; in experiment [2] it was > 100 µg/mL; with Influenza A virus H1N1, < 100 µg/mL; in the experiment with many virus it was < 50 µg/mL.

As to `C=C1CCC2C3(C)COC(c4ccc(OC5OC(CO)C(O)C(O)C5O)cc4)OC3CCC2(C)C1C/C=C1/C(=O)OCC1O` (stereo not shown) [Example 45, (E)-3-(2-(6a,10b-dimethyl-8-methylene-3-(4-((3,4,5-trihydroxy-6-(hydroxymethyl)tetrahydro-2H-pyran-2-yl)oxy)phenyl)decahydro-1H-naphtho[2,1-d][1,3]dioxin-7-yl)ethylidene)-4-hydroxydihydrofuran-2(3H)-one], the EC50 was < 50 µg/mL in experiment [1]; < 50 µg/mL with Rift Valley fever virus (setting [3]); < 50 µg/mL in the experiment on SARS coronavirus (setting [4]); < 50 µg/mL in experiment [2]; > 100 µg/mL in the experiment with Influenza A virus H1N1; < 50 µg/mL in the experiment with many virus.

Consider `C=C1CCC2[C@](C)(CC[C@@H](O)[C@@]2(C)CO)C1/C=C/C1=CC(=C\c2cn(C)c3nc(N)ncc23)/OC1=O` (stereo partly shown) [Example 46, 11,12-dedihydro-14-deoxy-(E)-15-((2-amino-7-methyl-7H-pyrrolo[2,3-d]pyrimidin-5-yl)methylene)andrographolide], for which the 50% effective concentration (EC50) in experiment [1] was < 100 µg/mL; with Rift Valley fever virus (setting [3]) it was < 50 µg/mL; in the experiment on SARS coronavirus (setting [4]), < 50 µg/mL; in experiment [2], < 100 µg/mL; with Influenza A virus H1N1, < 100 µg/mL; in the experiment with many virus it was < 50 µg/mL.

Regarding `C=C1CCC2[C@](C)(CC[C@@H](O)[C@@]2(C)CO)C1/C=C/C1=CC(=C\c2cnc(N)[nH]c2=O)/OC1=O` (stereo partly shown) [Example 50, 11,12-dedihydro-14-deoxy-15-(2-amino-4-oxo-3H-pyrimidine-5-ylmethylene)andrographolide], the EC50 is < 50 µg/mL in experiment [1]; < 100 µg/mL with Rift Valley fever virus (setting [3]); < 100 µg/mL in the experiment on SARS coronavirus (setting [4]); < 50 µg/mL in experiment [2]; < 50 µg/mL in the experiment on Influenza A virus H1N1; < 50 µg/mL in the experiment on many virus.

On to `C=C1CCC2C(C)(CO)C(O)CCC2(C)C1CC(Nc1cccc(Cl)c1)C1=CCOC1=O` (stereo not shown) [Example 53, 12-((3-chlorophenyl)amino)-14-deoxyandrographolide], for which the EC50 in experiment [1] was < 50 µg/mL; with Rift Valley fever virus (read-out: EC50 against virus E), < 1 µg/mL; in the experiment with Rift Valley fever virus (setting [3]), < 10 µg/mL; with SARS coronavirus (read-out: EC50 against virus F) it was < 1 µg/mL; with SARS coronavirus (setting [4]) it was < 50 µg/mL; in experiment [2] it was < 50 µg/mL. Also, the EC50 in the experiment on Influenza A virus H1N1 is < 50 µg/mL.

Consider `C=C1CCC2C(C)(CO)C(O)CCC2(C)C1CC(NC12CN3CN(CN(C3)C1)C2)C1=CCOC1=O` (stereo not shown) [Example 57, 12-((1s,3s,5s)-1,3,5-triazaadamantan-7-ylamino)-14-deoxyandrographolide], for which the EC50 in experiment [1] was < 50 µg/mL; in the experiment with Rift Valley fever virus (read-out: EC50 against virus E), < 1 µg/mL; with Rift Valley fever virus (setting [3]) it was < 50 µg/mL; with SARS coronavirus (read-out: EC50 against virus F), < 1 µg/mL; in the experiment on SARS coronavirus (setting [4]), < 50 µg/mL; in experiment [2], < 50 µg/mL. Also, in the experiment with Influenza A virus H1N1, the EC50 is < 50 µg/mL.

Take `Cn1cc(/C=C2C=C(/C=C/C3C4(CCC5[C@]3(C)CC[C@@H](O)[C@@]5(C)CO)CO4)C(=O)O\2)c2cnc(N)nc21` (stereo partly shown) [Example 59, 11,12-dedihydro-14-deoxy-(E)-15-((2-amino-7-methyl-7H-pyrrolo[2,3-d]pyrimidin-5-yl)methylene)-8,17-epoxyandrographolide]: the EC50 in experiment [1] was > 100 µg/mL; in the experiment with Rift Valley fever virus (setting [3]) it was < 50 µg/mL; in the experiment on SARS coronavirus (setting [4]) it was < 50 µg/mL; in experiment [2] it was > 100 µg/mL; in the experiment on Influenza A virus H1N1, < 100 µg/mL; with many virus, < 50 µg/mL.

In the case of `C=C1CCC2[C@](C)(CC[C@@H](O)[C@@]2(C)CO)C1/C=C/C1=CC(=C\C2=CN3CC(=O)N(C)C3C=C2)/OC1=O` (stereo partly shown) [Example 63, 11,12-dedihydro-14-deoxy-(E)-15-((1-methyl-2-oxo-1,2,3,8a-tetrahydroimidazo[1,2-a]pyridin-6-yl)methylene)andrographolide], the EC50 in experiment [1] is < 100 µg/mL; in the experiment on Rift Valley fever virus (setting [3]), < 50 µg/mL; with SARS coronavirus (setting [4]) it was < 50 µg/mL; in experiment [2] it was < 100 µg/mL; in the experiment on Influenza A virus H1N1, < 50 µg/mL; in the experiment with many virus, < 50 µg/mL.

Turning to `C=C1CCC2[C@](C)(CC[C@@H](O)[C@@]2(C)CO)C1/C=C/C1=CC(=C\c2cnc(N3CCCC3CO)nc2)/OC1=O` (stereo partly shown) [Example 65, 11,12-dedihydro-14-deoxy-(E)-15-((2-(2-(hydroxymethyl)pyrrolidin-1-yl)pyrimidin-5-yl)methylene)andrographolide], the EC50 in experiment [1] is > 100 µg/mL; with Rift Valley fever virus (setting [3]), < 50 µg/mL; with SARS coronavirus (setting [4]) it was < 50 µg/mL; in experiment [2], < 100 µg/mL; in the experiment on Influenza A virus H1N1 it was > 100 µg/mL; in the experiment with many virus it was < 50 µg/mL.

Take `CCN(CC)c1ccc(/C=C2C=C(/C=C/C3C4(CCC5[C@]3(C)CC[C@@H](O)[C@@]5(C)CO)CO4)C(=O)O\2)c(O)c1` (stereo partly shown) [Example 66]: the EC50 in experiment [1] is < 50 µg/mL; in the experiment on Rift Valley fever virus (setting [3]), < 100 µg/mL; in the experiment on SARS coronavirus (setting [4]), < 100 µg/mL; in experiment [2] it was < 50 µg/mL; with Influenza A virus H1N1 it was < 100 µg/mL; in the experiment on many virus it was < 50 µg/mL.

In the case of `C=C1C(N2CCOCC2)CC2[C@](C)(CC[C@@H](O)[C@@]2(C)CO)C1/C=C/C1=CCOC1=O` (stereo partly shown) [Example 83], the EC50 in experiment [1] is < 50 µg/mL; in the experiment with Rift Valley fever virus (read-out: EC50 against virus E), < 1 µg/mL; with Rift Valley fever virus (setting [3]), < 50 µg/mL; in the experiment with SARS coronavirus (read-out: EC50 against virus F) it was < 1 µg/mL; in the experiment on SARS coronavirus (setting [4]), < 50 µg/mL; in experiment [2] it was < 50 µg/mL. In the experiment on Influenza A virus H1N1, the EC50 is < 50 µg/mL.
